Source: US9994528B2, “Certain amino-pyridines and amino-triazines, compositions thereof, and methods for their use” (Cytokinetics, Inc., priority 2010, dated 2018)

What follows are compounds tested on rabbit skeletal myofibrils (approximately 90% fast fibers) (assay: Activation of fast skeletal myofibrils (PUMA coupled-enzyme ATPase assay)). Conditions: AC1.4 = concentration at which the compound increased the enzymatic activity by 40%; myofibril suspension at calcium level pCa25; PM12 buffer pH 6.8.
Format: biochemical
Procedure: Preparation of fast skeletal myofibrils. Rabbit skeletal myofibrils were prepared based upon the method of Herrmann et al. (Biochem. 32(28):7255-7263(1993). Myofibrils were prepared from rabbit psoas muscle purchased from Pel-Freez Biologicals (Arkansas) within 2 days of ordering, stored on ice. Minced muscle was homogenized in 10 volumes of ice-cold “standard” buffer (50 mM Tris, pH 7.4, 0.1 M potassium acetate, 5 mM KCl, 2 mM DTT, 0.2 mM PMSF, 10 μM leupeptin, 5 μM pepstatin, and 0.5 mM sodium azide) containing 5 mM EDTA and 0.5% Triton X-100 using an Omni-Macro homogenizer. Myofibrils were recovered by low speed centrifugation (3000 rpm for 10 minutes) and washed 2 times in the Triton X-100 containing buffer to ensure removal of cellular membrane. Following the Triton washes, myofibrils were washed 3 times in “standard” buffer containing 2 mM magnesium acetate. A final wash in assay buffer (12 mM PIPES, pH 6.8, 60 mM KCl, 1 mM DTT) was performed and brought to 10% sucrose for flash freezing in liquid nitrogen and storage at −80° C.
Activation of Fast Skeletal Myofibrils. Fast fiber activators were identified by measuring the enzymatic activity of muscle myofibril preparations using the proprietary PUMA™ (see, e.g., U.S. Pat. Nos. 6,410,254, 6,743,599, 7,202,051, and 7,378,254) assay system. Myofibril preparations consisted of rabbit skeletal muscle (approximately 90% fast fibers) that had been mechanically homogenized and washed with a detergent (triton X-100) to remove cellular membranes. This preparation retained all of the sarcomeric components in a native conformation and the enzymatic activity was still regulated by calcium. Compounds were tested using a myofibril suspension and a level of calcium sufficient to increase enzymatic activity of the myofibrils to 25% of their maximal rate (termed pCa25). Enzymatic activity was tracked via a pyruvate kinase and lactate dehydrogenase-coupled enzyme system. This assay regenerates myosin-produced ADP into ATP by oxidizing NADH, producing an absorbance change at 340 nm. The buffering system was 12 mM Pipes, 2 mM MgCl2, 1 mM DTT at pH 6.8 (PM12 buffer).
Using procedures similar to those described herein, utilizing reagents and intermediates commercially available (e.g., Sigma-Aldrich,) or readily synthesized by one of skill in the art, the compounds in Table 2 were synthesized, characterized and tested. AC1.4 values were determined according to the procedure described in Example 25, and the reported median AC1.4 values are as follows: A=<1 uM; B=1-10 uM; C=10-20 uM; D=>20 uM.
For “2-{2-[3-({[3-fluoro-1-(3-fluoro(2- pyridyl))cyclobutyl]methyl}amino)-1,2,4- triazin-6-yl]-1,3-thiazoI-5-yl}acetamide”, the “Mean AC1.4” value was “C (C=10-20 uM)”.
`CC(C)(Nc1ncc(-n2cc(C(N)=O)cn2)nn1)c1ncccc1Cl` [1-(3-{[1-(3-chloro(2-pyridyl))-isopropyl]amino}-1,2,4-triazin-6-yl)pyrazole-4-carboxamide] was tested, and the “Mean AC1.4” value was “D (D=>20 uM)”.
With `CC(C)(Nc1ncc(-n2cc(C(N)=O)cn2)nn1)c1ncccc1F` [1-(3-{[1-(3-fluoro(2-pyridyl))-isopropyl]amino}-1,2,4-triazin-6-yl)pyrazole-4-carboxamide] the “Mean AC1.4” value was “D (D=>20 uM)”.
In the case of `CC(C)(CNc1ncc(-n2cc(C(N)=O)cn2)nn1)c1ccc(F)cc1` [1-(3-{[2-(4-fluorophenyl)-2-methylpropyl]amino}-1,2,4-triazin-6-yl)pyrazole-4-carboxamide], the “Mean AC1.4” value is reported as “B (B=1-10 uM)”.
With `NC(=O)c1cnn(-c2cnc(NC3(c4ncccc4F)CCC3)nn2)c1` [1-(3-{[(3-fluoro-2-pyridyl)cyclobutyl]amino}-1,2,4-triazin-6-yl)pyrazole-4-carboxamide] the “Mean AC1.4” value was “D (D=>20 uM)”.
With `CC(C)(CNc1ccc(C(O)CO)cn1)c1ccc(F)cc1` (stereo not drawn) [1-(6-{[2-(4-fluorophenyl)-2-methylpropyl]amino}-3-pyridyl)ethane-1,2-diol] the “Mean AC1.4” value was “D (D=>20 uM)”.
With `CC(C)(Nc1ncc(-n2cc(C(N)=O)cn2)nn1)c1cccc(OC(F)F)n1` [1-[3-({1-[6-(difluoromethoxy)(2-pyridyl)]-isopropyl}amino)-1,2,4-triazin-6-yl]pyrazole-4-carboxamide] the “Mean AC1.4” value was “B (B=1-10 uM)”.
For `NC(=O)c1cnn(-c2cnc(NCC3(c4ncccc4F)CCC3)nn2)c1` [1-[3-({[(3-fluoro-2-pyridyl)cyclobutyl]methyl}amino)-1,2,4-triazin-6-yl]pyrazole-4-carboxamide], the “Mean AC1.4” value was “B (B=1-10 uM)”.
For `CC(C)(Nc1ncc(-c2ncc(CC(N)=O)s2)nn1)c1ncccc1F` [2-[2-(3-{[1-(3-fluoro(2-pyridyl))-isopropyl]amino}-1,2,4-triazin-6-yl)-1,3-thiazol-5-yl]acetamide], the “Mean AC1.4” value was “D (D=>20 uM)”.
For `CC(C)(Nc1ncc(-c2cccc(CC(N)=O)c2)nn1)c1ncccc1F` [2-[3-(3-{[1-(3-fluoro(2-pyridyl))-isopropyl]amino}-1,2,4-triazin-6-yl)phenyl]acetamide], the “Mean AC1.4” value was “D (D=>20 uM)”.
In the case of `CC(C)(Nc1ncc(-c2ncc(C(N)=O)s2)nn1)c1cccc(OC(F)F)n1` [2-[3-({1-[6-(difluoromethoxy)(2-pyridyl)]-isopropyl}amino)-1,2,4-triazin-6-yl]-1,3-thiazole-5-carboxamide], the “Mean AC1.4” value is reported as “B (B=1-10 uM)”.
For `CC(C)(Nc1ncc(-c2cc(CNC(=O)CN)ccc2F)nn1)c1ncccc1F` [2-amino-N-{[4-fluoro-3-(3-{[1-(3-fluoro(2-pyridyl))-isopropyl]amino}(1,2,4-triazin-6-yl))phenyl]methyl}acetamide], the “Mean AC1.4” value was “B (B=1-10 uM)”.
In the case of `CC(C)(Nc1ncc(-c2ccc(F)c(C(N)=O)c2)nn1)c1ncccc1F` [2-fluoro-5-(3-{[1-(3-fluoro(2-pyridyl))-isopropyl]amino}(1,2,4-triazin-6-yl))benzamide], the “Mean AC1.4” value is reported as “D (D=>20 uM)”.
For `CC(C)(Nc1ncc(-c2ccc(F)c(C(=O)O)c2)nn1)c1ncccc1F` [2-fluoro-5-(3-{[1-(3-fluoro(2-pyridyl))-isopropyl]amino}(1,2,4-triazin-6-yl))benzoic acid], the “Mean AC1.4” value was “D (D=>20 uM)”.
With `N#Cc1cc(-c2cnc(NCC3(c4ncccc4F)CCC3)nn2)ccc1F` [2-fluoro-5-[3-({[(3-fluoro(2-pyridyl))cyclobutyl]methyl}amino)(1,2,4-triazin-6-yl)]benzenecarbonitrile] the “Mean AC1.4” value was “C (C=10-20 uM)”.
For `NC(=O)Cc1cnc(-c2cnc(NCC3(c4ncccc4F)CCC3)nn2)s1` [2-{2-[3-({[(3-fluoro-2-pyridyl)cyclobutyl]methyl}amino)-1,2,4-triazin-6-yl]-1,3-thiazol-5-yl}acetamide], the “Mean AC1.4” value was “C (C=10-20 uM)”.
`CC(C)(CNc1ccc2cc(C(N)=O)ccc2n1)c1ccc(F)cc1` [2-{[2-(4-fluorophenyl)-2-methylpropyl]amino}quinoline-6-carboxamide] was tested, and the “Mean AC1.4” value was “B (B=1-10 uM)”.
`CC(C)(Nc1ncc(-c2cc(C(N)=O)ccc2F)nn1)c1ncccc1Cl` [3-(3-{[1-(3-chloro(2-pyridyl))-isopropyl]amino}(1,2,4-triazin-6-yl))-4-fluorobenzamide] was tested, and the “Mean AC1.4” value was “B (B=1-10 uM)”.
For `CC(C)(Nc1ncc(-c2cccc(C(N)=O)c2)nn1)c1ncccc1Cl` [3-(3-{[1-(3-chloro(2-pyridyl))-isopropyl]amino}-1,2,4-triazin-6-yl)benzamide], the “Mean AC1.4” value was “B (B=1-10 uM)”.
For `CC(C)(Nc1ncc(-c2cccc(C(N)=O)c2)nn1)c1ncccc1F` [3-(3-{[1-(3-fluoro(2-pyridyl))-isopropyl]amino}-1,2,4-triazin-6-yl)benzamide], the “Mean AC1.4” value was “B (B=1-10 uM)”.
For `CC(C)(CNc1ncc(-c2cc(C(N)=O)ccc2F)nn1)c1ncccc1Cl` [3-(3-{[2-(3-chloro(2-pyridyl))-2-methylpropyl]amino}(1,2,4-triazin-6-yl))-4-fluorobenzamide], the “Mean AC1.4” value was “B (B=1-10 uM)”.
For `CC(C)(CNc1ncc(-c2cc(C(=O)O)ccc2F)nn1)c1ncccc1Cl` [3-(3-{[2-(3-chloro(2-pyridyl))-2-methylpropyl]amino}(1,2,4-triazin-6-yl))-4-fluorobenzoic acid], the “Mean AC1.4” value was “B (B=1-10 uM)”.
In the case of `CC(C)(CNc1ncc(-c2cccc(C(N)=O)c2)nn1)c1ccc(F)cc1` [3-(3-{[2-(4-fluorophenyl)-2-methylpropyl]amino}-1,2,4-triazin-6-yl)benzamide], the “Mean AC1.4” value is reported as “B (B=1-10 uM)”.
`NC(=O)c1cccc(-c2cnc(NCC3(c4ccccn4)CCC3)nn2)c1` [3-(3-{[(2-pyridylcyclobutyl)methyl]amino}-1,2,4-triazin-6-yl)benzamide] was tested, and the “Mean AC1.4” value was “B (B=1-10 uM)”.
For `N#Cc1cccc(-c2cnc(NCC3(c4ccccn4)CCC3)nn2)c1` [3-(3-{[(2-pyridylcyclobutyl)methyl]amino}-1,2,4-triazin-6-yl)benzenecarbonitrile], the “Mean AC1.4” value was “B (B=1-10 uM)”.
`CC(C)(CNc1cnc(-c2cccc(C(N)=O)c2)nn1)c1ccc(F)cc1` [3-(6-{[2-(4-fluorophenyl)-2-methylpropyl]amino}-1,2,4-triazin-3-yl)benzamide] was tested, and the “Mean AC1.4” value was “B (B=1-10 uM)”.
`CC(C)(CNc1ccc(-c2cccc(C(N)=O)c2)cn1)c1ccc(F)cc1` [3-(6-{[2-(4-fluorophenyl)-2-methylpropyl]amino}-3-pyridyl)benzamide] was tested, and the “Mean AC1.4” value was “A (A=<1 uM)”.
In the case of `CC(C)(CNc1ccc(CC(O)CO)cn1)c1ccc(F)cc1` (stereo not drawn) [3-(6-{[2-(4-fluorophenyl)-2-methylpropyl]amino}-3-pyridyl)propane-1,2-diol], the “Mean AC1.4” value is reported as “D (D=>20 uM)”.
For `NC(=O)c1cccc(-c2ccc(NCCc3ccc(F)cc3)nc2)c1` [3-(6-{[2-(4-fluorophenyl)ethyl]amino}-3-pyridyl)benzamide], the “Mean AC1.4” value was “D (D=>20 uM)”.
For `C[C@@H](CNc1ccc(-c2cccc(C(N)=O)c2)cn1)c1ccc(F)cc1` [3-(6-{[(2R)-2-(4-fluorophenyl)propyl]amino}-3-pyridyl)benzamide], the “Mean AC1.4” value was “B (B=1-10 uM)”.
`C[C@H](CNc1ccc(-c2cccc(C(N)=O)c2)cn1)c1ccc(F)cc1` [3-(6-{[(2S)-2-(4-fluorophenyl)propyl]amino}-3-pyridyl)benzamide] was tested, and the “Mean AC1.4” value was “B (B=1-10 uM)”.
`CC(C)(Nc1ncc(-c2cc(C(N)=O)ccc2F)nn1)c1ncccc1C(F)F` [3-[3-({1-[3-(difluoromethyl)(2-pyridyl)]-isopropyl}amino)(1,2,4-triazin-6-yl)]-4-fluorobenzamide] was tested, and the “Mean AC1.4” value was “C (C=10-20 uM)”.
With `CC(C)(Nc1ncc(-c2cc(C#N)ccc2F)nn1)c1ncccc1C(F)F` [3-[3-({1-[3-(difluoromethyl)(2-pyridyl)]-isopropyl}amino)(1,2,4-triazin-6-yl)]-4-fluorobenzenecarbonitrile] the “Mean AC1.4” value was “D (D=>20 uM)”.
